According to publication PMC3399817 (PLoS ONE, 2012):

Columns and labels:
Test in all cases: KINOMEscan
Assay type in all cases: binding
TAOK3 = target: T1, TAOK3 (Homo sapiens, UniProt Q9H2K8); conditions: TAOK3, 1 uM
T1 construct: purchased Ambit KINOMEscan (DiscoverX)
Procedure, shortened: (§1)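 Binding assay, no enzymatic read-out; all compounds tested at 1 μM to find kinases whose substrate binding they inhibit.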

AKT3 = target: T2, AKT3 (Homo sapiens, UniProt Q9Y243); conditions: AKT3, 1 uM
T2 construct: purchased Ambit KINOMEscan (DiscoverX)
Procedure, shortened: as §1

PAK3 = target: T3, PAK3 (Homo sapiens, UniProt O75914); conditions: PAK3, 1 uM
T3 construct: purchased Ambit KINOMEscan (DiscoverX)
Procedure, shortened: as §1

PIK3CG = target: T4, PIK3CG (Homo sapiens, UniProt P48736); conditions: 1 uM
T4 construct: purchased Ambit KINOMEscan (DiscoverX)
Procedure, shortened: as §1

LATS1 = target: T5, LATS1 (Homo sapiens, UniProt O95835); conditions: LATS1, 1 uM
T5 construct: purchased Ambit KINOMEscan (DiscoverX)
Procedure, shortened: as §1

BRAF(V600E) = target: T6, BRAF(V600E) (Homo sapiens, UniProt P15056, V600E); conditions: 1 uM
T6 construct: purchased Ambit KINOMEscan (DiscoverX)
Procedure, shortened: as §1

MAP4K3 = target: T7, MAP4K3 (Homo sapiens, UniProt Q8IVH8); conditions: MAP4K3, 1 uM
T7 construct: purchased Ambit KINOMEscan (DiscoverX)
Procedure, shortened: as §1

EPHB1 = target: T8, EPHB1 (Homo sapiens, UniProt P54762); conditions: EPHB1, 1 uM
T8 construct: purchased Ambit KINOMEscan (DiscoverX)
Procedure, shortened: as §1

PRKR = target: T9, PRKR (Homo sapiens, UniProt P19525); conditions: 1 uM
T9 construct: purchased Ambit KINOMEscan (DiscoverX)
Procedure, shortened: as §1

[1] = target: T10, TYK2(JH2domain-pseudokinase) (Homo sapiens, UniProt P29597); conditions: 1 uM
T10 construct: TYK2(JH2domain-pseudokinase); purchased Ambit KINOMEscan (DiscoverX)
Procedure, shortened: as §1

SIK2 = target: T11, SIK2 (Homo sapiens, UniProt Q9H0K1); conditions: SIK2, 1 uM
T11 construct: purchased Ambit KINOMEscan (DiscoverX)
Procedure, shortened: as §1

TGFBR2 = target: T12, TGFBR2 (Homo sapiens, UniProt P37173); conditions: TGFBR2, 1 uM
T12 construct: purchased Ambit KINOMEscan (DiscoverX)
Procedure, shortened: as §1

MKNK2 = target: T13, MKNK2 (Homo sapiens, UniProt Q9HBH9); conditions: MKNK2, 1 uM
T13 construct: purchased Ambit KINOMEscan (DiscoverX)
Procedure, shortened: as §1

TNIK = target: T14, TNIK (Homo sapiens, UniProt Q9UKE5); conditions: 1 uM
T14 construct: purchased Ambit KINOMEscan (DiscoverX)
Procedure, shortened: as §1

KIT(D816V) = target: T15, KIT(D816V) (Homo sapiens, UniProt P10721, D816V); conditions: 1 uM
T15 construct: purchased Ambit KINOMEscan (DiscoverX)
Procedure, shortened: as §1

PKMYT1 = target: T16, PKMYT1 (Homo sapiens, UniProt Q99640); conditions: PKMYT1, 1 uM
T16 construct: purchased Ambit KINOMEscan (DiscoverX)
Procedure, shortened: as §1

IKK-beta = target: T17, IKK-beta (Homo sapiens, UniProt O14920); conditions: 1 uM
T17 construct: purchased Ambit KINOMEscan (DiscoverX)
Procedure, shortened: as §1

MARK4 = target: T18, MARK4 (Homo sapiens, UniProt Q96L34); conditions: MARK4, 1 uM
T18 construct: purchased Ambit KINOMEscan (DiscoverX)
Procedure, shortened: as §1

p38-alpha = target: T19, p38-alpha (Homo sapiens, UniProt Q16539); conditions: 1 uM
T19 construct: purchased Ambit KINOMEscan (DiscoverX)
Procedure, shortened: as §1

PFTAIRE2 = target: T20, PFTAIRE2 (Homo sapiens, UniProt Q96Q40); conditions: PFTAIRE2, 1 uM
T20 construct: purchased Ambit KINOMEscan (DiscoverX)
Procedure, shortened: as §1

ROCK1 = target: T21, ROCK1 (Homo sapiens, UniProt Q13464)
T21 construct: purchased Ambit KINOMEscan (DiscoverX)
Procedure, shortened: as §1

EGFR(G719C) = target: T22, EGFR(G719C) (Homo sapiens, UniProt P00533, G719C); conditions: 1 uM
T22 construct: purchased Ambit KINOMEscan (DiscoverX)
Procedure, shortened: as §1

PAK6 = target: T23, PAK6 (Homo sapiens, UniProt Q9NQU5); conditions: PAK6, 1 uM
T23 construct: purchased Ambit KINOMEscan (DiscoverX)
Procedure, shortened: as §1

EPHA6 = target: T24, EPHA6 (Homo sapiens, UniProt Q9UF33); conditions: EPHA6, 1 uM
T24 construct: purchased Ambit KINOMEscan (DiscoverX)
Procedure, shortened: as §1

GSK3B = target: T25, GSK3B (Homo sapiens, UniProt P49841)
T25 construct: purchased Ambit KINOMEscan (DiscoverX)
Procedure, shortened: as §1

FLT4 = target: T26, FLT4 (Homo sapiens, UniProt P35916); conditions: FLT4, 1 uM
T26 construct: purchased Ambit KINOMEscan (DiscoverX)
Procedure, shortened: as §1

WEE2 = target: T27, WEE2 (Homo sapiens, UniProt P0C1S8); conditions: WEE2, 1 uM
T27 construct: purchased Ambit KINOMEscan (DiscoverX)
Procedure, shortened: as §1

BTK = target: T28, BTK (Homo sapiens, UniProt Q06187); conditions: 1 uM
T28 construct: purchased Ambit KINOMEscan (DiscoverX)
Procedure, shortened: as §1

ERK2 = target: T29, ERK2 (Homo sapiens, UniProt P28482); conditions: ERK2, 1 uM
T29 construct: purchased Ambit KINOMEscan (DiscoverX)
Procedure, shortened: as §1

BMPR2 = target: T30, BMPR2 (Homo sapiens, UniProt Q13873); conditions: BMPR2, 1 uM
T30 construct: purchased Ambit KINOMEscan (DiscoverX)
Procedure, shortened: as §1

[2] = target: T31, JAK1(JH2domain-pseudokinase) (Homo sapiens, UniProt P23458); conditions: 1 uM
T31 construct: JAK1(JH2domain-pseudokinase); purchased Ambit KINOMEscan (DiscoverX)
Procedure, shortened: as §1

MYLK2 = target: T32, MYLK2 (Homo sapiens, UniProt Q9H1R3); conditions: MYLK2, 1 uM
T32 construct: purchased Ambit KINOMEscan (DiscoverX)
Procedure, shortened: as §1

TGFBR1 = target: T33, TGFBR1 (Homo sapiens, UniProt P36897); conditions: TGFBR1, 1 uM
T33 construct: purchased Ambit KINOMEscan (DiscoverX)
Procedure, shortened: as §1

OSR1 = target: T34, OSR1 (Homo sapiens, UniProt O95747); conditions: OSR1, 1 uM
T34 construct: purchased Ambit KINOMEscan (DiscoverX)
Procedure, shortened: as §1

[3] = target: T35, ABL1(Q252H)-nonphosphorylated (Homo sapiens, UniProt P00519, Q252H); conditions: 1 uM
T35 construct: purchased Ambit KINOMEscan (DiscoverX)
Procedure, shortened: as §1

PDPK1 = target: T36, PDPK1 (Homo sapiens, UniProt O15530); conditions: PDPK1, 1 uM
T36 construct: purchased Ambit KINOMEscan (DiscoverX)
Procedure, shortened: as §1

BRK = target: T37, BRK (Homo sapiens, UniProt Q13882); conditions: 1 uM
T37 construct: purchased Ambit KINOMEscan (DiscoverX)
Procedure, shortened: as §1

ABL2 = target: T38, ABL2 (Homo sapiens, UniProt P42684); conditions: ABL2, 1 uM
T38 construct: purchased Ambit KINOMEscan (DiscoverX)
Procedure, shortened: as §1

T25 sequence (P49841 whole entry): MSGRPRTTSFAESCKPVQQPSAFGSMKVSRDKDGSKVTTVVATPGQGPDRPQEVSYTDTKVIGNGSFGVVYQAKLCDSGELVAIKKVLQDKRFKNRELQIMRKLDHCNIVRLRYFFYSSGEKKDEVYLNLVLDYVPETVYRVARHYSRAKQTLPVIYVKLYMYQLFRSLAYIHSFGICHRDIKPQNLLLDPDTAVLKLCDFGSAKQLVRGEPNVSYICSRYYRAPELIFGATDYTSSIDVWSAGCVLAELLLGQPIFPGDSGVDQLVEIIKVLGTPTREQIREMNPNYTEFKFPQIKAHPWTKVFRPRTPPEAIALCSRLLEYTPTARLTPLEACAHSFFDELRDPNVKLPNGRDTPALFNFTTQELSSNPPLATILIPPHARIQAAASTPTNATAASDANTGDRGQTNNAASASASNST
T21 sequence (Q13464 whole entry): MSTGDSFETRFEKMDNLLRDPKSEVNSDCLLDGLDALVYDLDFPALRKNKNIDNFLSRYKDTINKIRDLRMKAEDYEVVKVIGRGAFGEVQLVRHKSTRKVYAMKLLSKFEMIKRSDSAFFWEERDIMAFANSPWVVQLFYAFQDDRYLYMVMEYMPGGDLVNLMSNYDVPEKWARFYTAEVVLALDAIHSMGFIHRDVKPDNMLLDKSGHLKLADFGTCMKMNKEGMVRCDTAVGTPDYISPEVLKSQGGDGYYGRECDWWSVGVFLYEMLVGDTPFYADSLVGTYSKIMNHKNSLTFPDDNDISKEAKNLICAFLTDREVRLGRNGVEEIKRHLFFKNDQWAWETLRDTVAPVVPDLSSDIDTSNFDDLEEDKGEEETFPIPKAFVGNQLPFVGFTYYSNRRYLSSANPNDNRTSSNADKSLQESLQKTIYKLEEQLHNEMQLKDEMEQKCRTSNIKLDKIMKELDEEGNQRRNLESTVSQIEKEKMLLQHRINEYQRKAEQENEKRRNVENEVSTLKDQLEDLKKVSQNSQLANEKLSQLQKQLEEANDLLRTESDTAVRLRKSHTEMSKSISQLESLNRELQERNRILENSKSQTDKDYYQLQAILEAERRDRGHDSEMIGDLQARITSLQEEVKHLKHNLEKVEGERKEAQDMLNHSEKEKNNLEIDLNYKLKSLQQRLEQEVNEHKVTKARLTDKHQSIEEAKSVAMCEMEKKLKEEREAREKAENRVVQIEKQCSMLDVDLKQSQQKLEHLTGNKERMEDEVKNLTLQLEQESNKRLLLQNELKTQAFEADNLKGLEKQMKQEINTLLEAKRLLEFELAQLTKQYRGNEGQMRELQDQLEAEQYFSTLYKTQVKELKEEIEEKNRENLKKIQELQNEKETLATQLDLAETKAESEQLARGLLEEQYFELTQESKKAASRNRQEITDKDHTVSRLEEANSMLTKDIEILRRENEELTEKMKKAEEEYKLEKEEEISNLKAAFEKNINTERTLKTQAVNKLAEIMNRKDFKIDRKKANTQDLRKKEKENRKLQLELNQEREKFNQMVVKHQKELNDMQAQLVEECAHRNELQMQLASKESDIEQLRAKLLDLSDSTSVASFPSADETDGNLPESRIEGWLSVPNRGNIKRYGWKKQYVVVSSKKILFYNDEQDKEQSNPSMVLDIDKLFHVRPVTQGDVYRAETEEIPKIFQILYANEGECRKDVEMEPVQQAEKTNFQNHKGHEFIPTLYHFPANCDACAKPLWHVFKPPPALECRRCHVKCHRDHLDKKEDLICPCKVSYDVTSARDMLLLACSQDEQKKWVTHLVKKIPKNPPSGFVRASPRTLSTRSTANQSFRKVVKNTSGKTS
T10 sequence (P29597 556-888 limits assumed): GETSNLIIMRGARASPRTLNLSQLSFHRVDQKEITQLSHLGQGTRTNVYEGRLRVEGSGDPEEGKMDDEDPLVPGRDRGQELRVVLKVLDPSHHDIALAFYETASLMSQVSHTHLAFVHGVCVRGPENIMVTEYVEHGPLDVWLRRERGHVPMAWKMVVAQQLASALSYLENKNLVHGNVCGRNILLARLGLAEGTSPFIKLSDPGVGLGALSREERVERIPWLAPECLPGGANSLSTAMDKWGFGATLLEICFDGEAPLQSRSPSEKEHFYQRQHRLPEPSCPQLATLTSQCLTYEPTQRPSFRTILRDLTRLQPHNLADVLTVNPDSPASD
T34 sequence (O95747 whole entry): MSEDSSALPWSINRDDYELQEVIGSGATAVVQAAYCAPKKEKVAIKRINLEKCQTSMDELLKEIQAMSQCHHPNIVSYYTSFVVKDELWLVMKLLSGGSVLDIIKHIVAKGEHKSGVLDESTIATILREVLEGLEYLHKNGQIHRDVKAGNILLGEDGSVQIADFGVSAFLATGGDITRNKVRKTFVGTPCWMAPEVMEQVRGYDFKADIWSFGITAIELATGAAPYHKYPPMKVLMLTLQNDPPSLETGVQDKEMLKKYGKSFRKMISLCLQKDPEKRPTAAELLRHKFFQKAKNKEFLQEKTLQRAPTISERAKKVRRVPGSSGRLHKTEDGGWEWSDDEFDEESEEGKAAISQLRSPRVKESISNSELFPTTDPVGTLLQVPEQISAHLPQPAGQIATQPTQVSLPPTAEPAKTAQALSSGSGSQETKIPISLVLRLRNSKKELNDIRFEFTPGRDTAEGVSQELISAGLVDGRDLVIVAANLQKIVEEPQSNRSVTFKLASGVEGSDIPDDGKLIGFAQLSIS
T9 sequence (P19525 whole entry): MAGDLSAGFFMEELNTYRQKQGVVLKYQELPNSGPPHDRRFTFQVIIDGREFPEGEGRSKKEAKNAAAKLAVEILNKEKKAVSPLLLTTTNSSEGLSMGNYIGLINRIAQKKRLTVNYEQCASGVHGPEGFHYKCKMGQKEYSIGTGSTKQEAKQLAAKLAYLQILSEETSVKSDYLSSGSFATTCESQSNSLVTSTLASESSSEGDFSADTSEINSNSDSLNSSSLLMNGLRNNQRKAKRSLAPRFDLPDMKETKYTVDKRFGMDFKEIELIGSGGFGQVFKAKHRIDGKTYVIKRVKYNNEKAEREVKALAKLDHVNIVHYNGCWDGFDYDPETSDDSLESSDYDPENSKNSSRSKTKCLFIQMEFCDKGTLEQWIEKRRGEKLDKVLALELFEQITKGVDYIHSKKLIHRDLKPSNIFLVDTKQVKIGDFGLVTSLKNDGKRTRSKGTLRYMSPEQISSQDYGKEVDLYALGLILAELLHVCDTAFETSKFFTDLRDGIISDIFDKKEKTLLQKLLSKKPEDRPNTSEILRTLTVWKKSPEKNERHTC
T32 sequence (Q9H1R3 whole entry): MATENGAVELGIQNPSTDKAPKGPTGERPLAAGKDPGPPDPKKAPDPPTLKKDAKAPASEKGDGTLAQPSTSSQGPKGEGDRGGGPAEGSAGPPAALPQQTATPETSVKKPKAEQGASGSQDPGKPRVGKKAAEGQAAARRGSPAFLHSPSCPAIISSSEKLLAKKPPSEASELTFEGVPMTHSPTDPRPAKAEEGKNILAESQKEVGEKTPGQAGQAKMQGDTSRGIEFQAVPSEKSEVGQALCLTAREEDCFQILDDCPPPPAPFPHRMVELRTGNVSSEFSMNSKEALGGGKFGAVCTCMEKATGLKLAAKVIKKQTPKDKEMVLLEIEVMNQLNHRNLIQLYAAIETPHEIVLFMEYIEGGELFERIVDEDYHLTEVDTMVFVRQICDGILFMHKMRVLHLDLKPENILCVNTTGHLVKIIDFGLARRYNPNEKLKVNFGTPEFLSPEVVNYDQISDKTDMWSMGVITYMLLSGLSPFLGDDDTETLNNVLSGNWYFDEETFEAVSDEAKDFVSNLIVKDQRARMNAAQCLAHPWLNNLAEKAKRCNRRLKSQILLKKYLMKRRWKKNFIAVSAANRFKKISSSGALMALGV
T20 sequence (Q96Q40 whole entry): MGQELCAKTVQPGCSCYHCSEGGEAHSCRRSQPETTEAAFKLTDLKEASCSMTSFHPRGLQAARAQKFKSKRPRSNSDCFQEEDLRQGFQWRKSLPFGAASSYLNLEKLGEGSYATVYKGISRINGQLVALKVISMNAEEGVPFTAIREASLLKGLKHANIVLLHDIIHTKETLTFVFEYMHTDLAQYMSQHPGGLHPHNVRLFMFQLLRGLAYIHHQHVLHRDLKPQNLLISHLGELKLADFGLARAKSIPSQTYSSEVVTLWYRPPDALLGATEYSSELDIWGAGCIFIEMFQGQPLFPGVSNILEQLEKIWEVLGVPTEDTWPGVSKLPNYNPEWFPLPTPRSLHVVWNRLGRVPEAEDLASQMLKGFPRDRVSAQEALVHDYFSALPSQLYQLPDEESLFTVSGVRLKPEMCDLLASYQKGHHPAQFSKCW
T33 sequence (P36897 34-503): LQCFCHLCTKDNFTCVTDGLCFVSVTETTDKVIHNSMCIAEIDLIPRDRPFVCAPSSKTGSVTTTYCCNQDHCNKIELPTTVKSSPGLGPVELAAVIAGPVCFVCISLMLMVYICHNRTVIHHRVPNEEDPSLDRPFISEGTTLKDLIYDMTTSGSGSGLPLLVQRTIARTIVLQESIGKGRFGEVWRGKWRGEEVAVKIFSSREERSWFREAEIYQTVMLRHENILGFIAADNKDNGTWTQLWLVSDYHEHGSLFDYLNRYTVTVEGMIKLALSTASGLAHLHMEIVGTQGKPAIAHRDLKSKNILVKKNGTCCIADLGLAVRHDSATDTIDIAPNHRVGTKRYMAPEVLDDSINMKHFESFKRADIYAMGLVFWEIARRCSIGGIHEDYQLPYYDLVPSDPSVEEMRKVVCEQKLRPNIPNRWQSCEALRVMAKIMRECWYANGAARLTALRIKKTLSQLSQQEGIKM
T31 sequence (P23458 583-855 limits assumed): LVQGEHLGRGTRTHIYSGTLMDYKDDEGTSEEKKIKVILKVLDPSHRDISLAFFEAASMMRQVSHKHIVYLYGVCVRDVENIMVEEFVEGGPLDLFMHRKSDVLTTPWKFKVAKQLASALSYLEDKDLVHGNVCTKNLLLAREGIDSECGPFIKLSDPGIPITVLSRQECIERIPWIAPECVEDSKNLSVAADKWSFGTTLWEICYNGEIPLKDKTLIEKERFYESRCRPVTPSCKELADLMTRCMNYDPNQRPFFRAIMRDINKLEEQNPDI

COc1ccc(-c2cc3nccn3c(Nc3ncccc3C(N)=O)n2)cc1OC.Cl.Cl [BAY61-3606, 2-[7-(3,4-dimethoxyphenyl)-imidazo [1,2-c]pyrimidin-5-ylamino] nicotinamide dihydrochloride, reference compound]
% binding compared to no inhibitor control (TAOK3): 100%
% binding compared to no inhibitor control (AKT3): 90%
% binding compared to no inhibitor control (PAK3): 92%
% binding compared to no inhibitor control (PIK3CG): 26%
% binding compared to no inhibitor control (LATS1): 100%
% binding compared to no inhibitor control (BRAF(V600E)): 84%
% binding compared to no inhibitor control (MAP4K3): 97%
% binding compared to no inhibitor control (EPHB1): 90%
% binding compared to no inhibitor control (PRKR): 27%
% binding compared to no inhibitor control [1]: 9.2%
% binding compared to no inhibitor control (SIK2): 100%
% binding compared to no inhibitor control (TGFBR2): 31%
% binding compared to no inhibitor control (MKNK2): 1.7%
% binding compared to no inhibitor control (TNIK): 69%
% binding compared to no inhibitor control (KIT(D816V)): 4.7%
% binding compared to no inhibitor control (PKMYT1): 88%
% binding compared to no inhibitor control (IKK-beta): 37%
% binding compared to no inhibitor control (MARK4): 88%
% binding compared to no inhibitor control (p38-alpha): 100%
% binding compared to no inhibitor control (PFTAIRE2): 85%
% binding compared to no inhibitor control (ROCK1; ROCK1, 1 uM): 3.2%
% inhibition ATP binding (ROCK1; ROCK1, KINOMEscan, 1 μM): 96.8%
% binding compared to no inhibitor control (EGFR(G719C)): 68%
% binding compared to no inhibitor control (PAK6): 65%
% binding compared to no inhibitor control (EPHA6): 97%
% binding compared to no inhibitor control (GSK3B; GSK3B, 1 uM): 39%
% inhibition ATP binding (GSK3B; GSK3β, KINOMEscan, 1 μM): 61%
% binding compared to no inhibitor control (FLT4): 100%
% binding compared to no inhibitor control (WEE2): 100%
% binding compared to no inhibitor control (BTK): 50%
% binding compared to no inhibitor control (ERK2): 68%
% binding compared to no inhibitor control (BMPR2): 46%
% binding compared to no inhibitor control [2]: 80%
% binding compared to no inhibitor control (MYLK2): 86%
% binding compared to no inhibitor control (TGFBR1): 99%
% binding compared to no inhibitor control (OSR1): 100%
% binding compared to no inhibitor control [3]: 85%
% binding compared to no inhibitor control (PDPK1): 99%
% binding compared to no inhibitor control (BRK): 87%
% binding compared to no inhibitor control (ABL2): 95%
